According to publication PMC5266325, “The Rice Dynamin-Related Protein OsDRP1E Negatively Regulates Programmed Cell Death by Controlling the Release of Cytochrome c from Mitochondria” (PLoS Pathogens, 2017):
Where a chain is given by its changes, count along the chain named.

Assays:
OsDRP1E (MBP-OsDRP1E) [1] = molecular target: T1, OsDRP1E (MBP-OsDRP1E) (Oryza sativa, UniProt Q650Z3, E409V); test: colorimetric phosphate release GTPase assay; type: biochemical; details: MBP fusion; time course and 2, 5, 10 ug protein; lower activity than wild type
T1 construct: gene Os09g0572900; tag kept; native protein 70 kDa
T1 sequence (Q650Z3 1-626 E409V): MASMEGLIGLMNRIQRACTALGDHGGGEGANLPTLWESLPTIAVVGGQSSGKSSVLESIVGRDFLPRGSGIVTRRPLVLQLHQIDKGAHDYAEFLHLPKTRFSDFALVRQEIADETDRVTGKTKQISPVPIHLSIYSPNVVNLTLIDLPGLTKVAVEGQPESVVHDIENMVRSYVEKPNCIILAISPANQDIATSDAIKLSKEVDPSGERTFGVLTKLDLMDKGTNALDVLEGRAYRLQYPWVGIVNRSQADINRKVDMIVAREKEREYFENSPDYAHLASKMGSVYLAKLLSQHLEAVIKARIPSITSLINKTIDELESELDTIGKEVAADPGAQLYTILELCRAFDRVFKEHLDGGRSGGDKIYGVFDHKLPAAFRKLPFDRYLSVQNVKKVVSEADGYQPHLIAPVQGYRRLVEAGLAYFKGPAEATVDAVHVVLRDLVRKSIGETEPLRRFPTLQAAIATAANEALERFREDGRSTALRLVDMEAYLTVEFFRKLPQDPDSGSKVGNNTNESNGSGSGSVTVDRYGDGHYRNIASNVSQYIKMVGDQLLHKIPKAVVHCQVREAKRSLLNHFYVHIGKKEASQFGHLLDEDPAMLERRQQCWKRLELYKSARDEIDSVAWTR

OsDRP1E (MBP-OsDRP1E) [2] = molecular target: T2, OsDRP1E (MBP-OsDRP1E) (Oryza sativa, UniProt Q650Z3); test: colorimetric phosphate release GTPase assay; type: biochemical; details: MBP fusion; time course and 2, 5, 10 ug protein
T2 construct: gene Os09g0572900; tag kept; native protein 70 kDa
T2 sequence (Q650Z3 1-626): T1 sequence (Q650Z3 1-626 E409V) with V409E

Nc1nc2c(ncn2[C@@H]2O[C@H](COP(=O)(O)OP(=O)(O)OP(=O)(O)O)[C@@H](O)[C@H]2O)c(=O)[nH]1 [GTP]
colorimetric phosphate release GTPase assay (OsDRP1E (MBP-OsDRP1E) [1]): both MBP-OsDRP1E and MBP-E409V displayed catalytic activity towards the substrate GTP | colorimetric phosphate release GTPase assay (OsDRP1E (MBP-OsDRP1E) [2]): both MBP-OsDRP1E and MBP-E409V displayed catalytic activity towards the substrate GTP
